Source: PMC7875911 (Frontiers in Pharmacology, 2021)
Like-named read-outs stand apart in the source and are kept apart here. No end group written: not given here.

Tests used:
[1] = system: voltage-gated ion channels (VGICs); conditions: cited from earlier work; for inhibition of Nav and Cav channels (in words): Chuang et al., Yamamoto and Sakashita, Middleton et al., Sidach and Mintz, Xiao et al., 2005
Nav1.7 = conditions: cited from earlier work
Description: Loss-of-function mutation of the SCN9A gene that codes for Nav1.7 leads to congenital insensitivity to pain ([Cox et al., 2006]), whereas SCN9A gain-of-function mutations causes paroxysmal extreme pain disorder and primary erythromelalgia ([Dib-Hajj et al., 2008]). […] Homology of VGIC voltage sensing domains, and particularly those of Nav channels, is at the crux of the development of genuinely selective Nav1.7 modulators ([Kingwell, 2019]). Given the VSD functional importance in neuronal VGICs and their structural homology, it is not surprising that VDPs target related channel families. […] Mammalian Nav and Cav α-subunits are structurally homologous but differ in their gating mechanisms ([Kubota et al., 2017]).

animal pain models = conditions: cited from earlier work
Description: […]. Nav channels are structurally related to voltage-gated calcium (Cav) channels, Cav1 and Cav2. […] […].

[2] = system: HVA I Ca in small-diameter IB4 ^− DRG neurons; assay: cells
Description: Spinal level L3–L5 DRG were removed and placed in ice-cold HEPES-buffered saline (HBS) composed of (in mM): 154 NaCl, 2.5 KCl, 1.8 CaCl2, 1.5 MgCl2, 10 HEPES, and 10 glucose (pH 7.4, 330 ± 5 mOsm). Iridectomy scissors were utilized to cut up ganglia before incubation at 37°C for 15 min in oxygenated HBS containing 5 mg ml^−1 collagenase type 2 (Worthington Biochemical Corp, Lakewood, NJ, United States) followed by 25 min in oxygenated HBS containing 1 mg ml^−1 papain (Worthington Biochemical Corp). […] After enzyme treatment, ganglia were placed in 3 ml of HBS following two room temperature HBS washes. Ganglia were then triturated through fire-polished Pasteur pipettes with decreasing bores to extract cells. Finally, the cells mixed in HBS were plated onto surface modified culture dishes (Corning Primaria™ easy grip). […] DRG cells were pre-treated with 1 μg ml^−1 Alexa Fluor 488-conjugated Bandeiraea simplicifolia IB4 (Invitrogen) for 5 min at room temperature and washed with HBS for 5 min before fluorescence was examined on the inverted microscope (Olympus, IX50) used for patch clamp recordings.
Cell size was determined from an eyepiece graticule. Whole-cell electrophysiology was conducted at room temperature (22–24°C) in culture dishes perfused with room temperature HBS. The intracellular pipette solution contained (mM): 120 CsCl, 10 HEPES, 10 EGTA, 2 CaCl2, 5 MgATP, 5 Na2GTP, 5 NaCl; pH 7.3 (CsOH); 285 ± 5 mos mol l^−1.
An EPC-9 patch-clamp amplifier and corresponding PULSE software from HEKA Electronik (Lambrecht/Pfalz, Germany) were used to make recordings. Currents were sampled at 50 kHz and recorded on a hard disk. Borosilicate glass from AM Systems, Everett, WA, United States were used for patch pipettes. The input resistance of the pipettes ranged from 2 to 4 MΩ. […] A built-in procedure of the HEKA amplifier compensated for the capacitive transient currents. A −P/6 protocol was utilized to subtract leak current online. I Ca was generated with the recording protocol which included a depolarization from a holding potential of −80 mV to 0 mV for 10 ms every 30 s. I Na was generated through a recording protocol which included a step depolarization from a holding potential of −80 mV to 0 mV for 10 ms at a frequency of 0.1 Hz. Cells were perfused with the test compound via a pressure driven perfusion system (AutoMate Scientific, United States).
All data analysis and graphs were generated in OriginPro (Origin Lab Corporation, United States). […] Activation and SSI curves were fit by the modified Boltzmann equation: I or G=1/(1+exp(Vm−V0.5/ka)) Where I is the current or G is the conductance, Vm is the pre-pulse potential, V 0.5 is the half-maximal activation potential and ka is the slope factor.
Statistical significance (p < 0.05) was determined using unpaired Student’s t-test or 1-way ANOVA followed by a Tukey multiple comparison. All data is presented as mean ± SEM (n), where n is individual cells.

[3] = system: T-type and L-type Cav channels; conditions: ref Chuang et al., 1998, Olamendi-Portugal et al., 2002, Sidach and Mintz; cited from earlier work
Description: (§1) Mammalian Nav and Cav α-subunits are structurally homologous but differ in their gating mechanisms ([Kubota et al., 2017]).

Nav1.2 and Nav1.5 = conditions: ref Chuang et al., 1998, Olamendi-Portugal et al., 2002, Sidach and Mintz; cited from earlier work
Description: as §1

N-type Cav channel = conditions: ref Chuang et al., 1998, Olamendi-Portugal et al., 2002, Sidach and Mintz; cited from earlier work
Description: as §1

P-type calcium channels = conditions: ref Chuang et al., 1998, Olamendi-Portugal et al., 2002, Sidach and Mintz; cited from earlier work
Description: as §1

[4] = ref Swartz and MacKinnon, 1995, 1998, Li-Smerin and Swartz, 2002, Bosmans et al., 2008, Bladen et al., 2014
[5] = ref Kuenzi and Dale, 1996, Caterina et al., 1997, McArthur et al., 2019

Hanatoxin
inhibition of Nav and Cav channels (in words) [1, 4]: inhibit both Nav and Cav channels | channel families acted on ([1]; ref Swartz and MacKinnon, 1995, Li-Smerin and Swartz, 1998, Bosmans et al., 2008): Kv/Nav/Cav

COc1cc(CNC(=O)CCCC/C=C/C(C)C)ccc1O [capsaicin]
channel families acted on [1, 5]: TRPV1/Kv/Cav

COc1ccc2c3c1O[C@H]1C(=O)CC[C@@]4(O)[C@@H](C2)N(C)CC[C@]314 [oxycodone, reference compound]
effect on Nav1.7 currents (in words) (Nav1.7; opioid receptor modulators, ref Mueller et al., 2019): did not alter Nav1.7 currents

ProTxI: voltage-sensing domain (VSD) gating modifier toxin (ECRYWLGGCSAGQTCCKHLVCSRRHGWCVWDGTFS; ends and bridges not checked; cysteine pairing not given here; UniProt P83480 1-35, looked up)
channel families acted on ([1]; ref Middleton et al., 2002, Bosmans et al., 2008, Bladen et al., 2014, Gui et al.): Nav/Kv/Cav/TRPA1 | inhibition of Nav and Cav channels (in words) [1, 4]: inhibit both Nav and Cav channels

Cn1nccc1-c1ccccc1Oc1ccc(S(=O)(=O)Nc2nccs2)cc1C#N [PF-04856264]
effect in rodent models of acute nociception or inflammatory pain (in words) (animal pain models; small molecule, ref Deuis et al., 2017): ineffective

Oc1cc2c(cc1O)CN(C(=S)NCCc1ccc(Cl)cc1)CCC2 [capsazepine]
channel families acted on [1, 5]: TRPV1/Kv/Cav

C=CCN1CC[C@]23c4c5ccc(O)c4O[C@H]2C(=O)CC[C@@]3(O)[C@H]1C5 [naloxone, reference compound]
effect on Nav1.7 currents (in words) (Nav1.7): did not alter Nav1.7 currents | inhibition at 1 µM ([2]; Rattus norvegicus, DRG neuron, read-out: inhibition of I Ca): 1.68 ± 0.61%

CN1CC[C@]23c4c5ccc(O)c4O[C@H]2[C@@H](O)C=C[C@H]3[C@H]1C5 [morphine]
antinociceptive effect in the presence of Cav1 and Cav2.2 channel inhibitors (in words) (animal pain models; in vivo): enhanced

ProTxII
channel families acted on ([1]; ref Middleton et al., 2002, Bladen et al., 2014): Nav/Cav | inhibition of Nav and Cav channels (in words) [1, 4]: inhibit both Nav and Cav channels | effect in rodent models of acute nociception or inflammatory pain (in words) (animal pain models; ref Schmalhofer et al., 2008): ineffective

[D-Ala^2, N-MePhe^4, Gly-ol]-Enkephalin [DAMGO, reference compound]
inhibition of HVA I Ca ([2]; 100 nM DAMGO applied alone, small IB4− rat DRG neurons, mean ± SEM, n = 6): 6.49 ± 1.07% | antinociceptive effect in the presence of Cav1 and Cav2.2 channel inhibitors (in words) (animal pain models; ref Contreras et al., 1988, Barro et al., 1995): enhanced

NC1=N[C@H](O)[C@H]2[C@H]3O[C@]4(O)O[C@@H]([C@@H](O)[C@@]2(N1)[C@@H]4O)[C@]3(O)CO [tetrodotoxin]
channel families acted on [1]: Nav/Cav

B1: Kurtoxin: scorpion peptide, gating modifier toxin (peptide, UniProt P58910 1-63, looked up)
Kurtoxin: KIDGYPVDYWNCKRICWYNNKYCNDLCKGLKADSGYCWGWTLSCYCQGLPDNARIKRSGRCRA
modifications: ends and bridges not checked
effect on deactivation (in words) [3]: accelerates deactivation | effect on inactivation of Nav1.2 and Nav1.5 (in words) (Nav1.2 and Nav1.5): slows inactivation | effect on N-type Cav channel kinetics (in words) (N-type Cav channel): little to no alteration | effect on deactivation (in words) (P-type calcium channels): slows deactivation | channel families acted on ([1]; ref Chuang et al., 1998): Nav/Cav | inhibition of Nav and Cav channels (in words) [1, 4]: inhibit both Nav and Cav channels
